Assay results as given in ChEMBL document CHEMBL1201862, “PubChem BioAssay data set” (2004).
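A five-concentration, 48-hour dose response in 96-well plates underlies each endpoint, interpolated linearly between surrounding concentrations. GI50: concentration for 50% inhibition of growth.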 Calls of active or inactive are those of the source. No stated cut-off is given here; in the data, active = GI50 up to about 1.1 µM and inactive = higher.

How the values were obtained:
Test in all cases: inhibition of tumour cell growth, NCI panel, 48 h
MOLT-4 = system: MOLT-4
SK-OV-3 = system: SK-OV-3
BT-549 = system: BT-549
UACC-257 = system: UACC-257
786-0 = system: 786-0
SF-295 = system: SF-295
HOP-62 = system: HOP-62
UO-31 = system: UO-31
COLO 205 = system: COLO 205
SK-MEL-5 = system: SK-MEL-5
SF-539 = system: SF-539
UACC-62 = system: UACC-62
NCI-H226 = system: NCI-H226
NCI-H23 = system: NCI-H23
ACHN = system: ACHN
MDA-MB-435 = system: MDA-MB-435
MDA-N = system: MDA-N
NCI-H460 = system: NCI-H460
OVCAR-5 = system: OVCAR-5
U-251 = system: U-251

Measured: GI50

CC1C2CC(C(S(=O)(=O)N3CCOCC3)/C2=N\O)C1(C)C (stereo not given)
inactive: MOLT-4 > 100 µM | SK-OV-3 > 100 µM | BT-549 > 100 µM | UACC-257 > 100 µM | 786-0 > 100 µM | SF-295 > 100 µM | HOP-62 > 100 µM | UO-31 > 100 µM | COLO 205 > 100 µM | SK-MEL-5 > 100 µM | SF-539 > 100 µM | UACC-62 > 100 µM | NCI-H226 > 100 µM | NCI-H23 > 100 µM | ACHN > 100 µM | MDA-MB-435 > 100 µM | MDA-N > 100 µM | NCI-H460 > 100 µM

CC1=NN=C(N)N/C1=C/C(Sc1ccc(Cl)cc1)c1cccs1 (stereo not given)
inactive: MOLT-4 13.6 µM | OVCAR-5 18.5 µM | SK-OV-3 12 µM | BT-549 37.9 µM | UACC-257 18.3 µM | 786-0 18.5 µM | SF-295 11.7 µM | HOP-62 12.5 µM | UO-31 4.45 µM | COLO 205 22.1 µM | SK-MEL-5 11.5 µM | UACC-62 > 10 µM | NCI-H226 17 µM | U-251 24.5 µM | NCI-H23 13.9 µM | ACHN 12.9 µM | MDA-MB-435 13.3 µM | MDA-N 16.1 µM | NCI-H460 13.6 µM

NS(=O)(=O)c1ccc(CNC(=S)NC(=O)Nc2ccc(Cl)c(Cl)c2)cc1
inactive: MOLT-4 15.9 µM | OVCAR-5 29 µM | SK-OV-3 19.6 µM | BT-549 16.9 µM | UACC-257 32.8 µM | 786-0 16.8 µM | SF-295 16.3 µM | HOP-62 18.6 µM | UO-31 16.9 µM | COLO 205 33 µM | SK-MEL-5 17.8 µM | SF-539 21.2 µM | UACC-62 15.1 µM | U-251 11.9 µM | NCI-H23 14.8 µM | ACHN 17.5 µM | MDA-N 20 µM | NCI-H460 25.2 µM

CN1CC[C@@]2(c3cccc(O)c3)CC(=O)/C(=C/c3ccccc3)[C@H]1C2.[O-][Cl+3]([O-])([O-])O
inactive: MOLT-4 2.49 µM | OVCAR-5 14.3 µM | BT-549 11.8 µM | UACC-257 16.1 µM | 786-0 4.44 µM | SF-295 11.3 µM | HOP-62 18.5 µM | UO-31 12.9 µM | COLO 205 8.05 µM | SK-MEL-5 17.8 µM | SF-539 16.9 µM | NCI-H226 17.8 µM | U-251 2.59 µM | NCI-H23 16 µM | ACHN 8.11 µM | MDA-MB-435 3.05 µM | MDA-N 4.88 µM | NCI-H460 3.52 µM

O=c1[nH]c(NCc2ccncc2)nc2[nH]cnc12
inactive: MOLT-4 > 100 µM | OVCAR-5 > 100 µM | SK-OV-3 > 100 µM | BT-549 > 100 µM | UACC-257 > 100 µM | 786-0 > 100 µM | SF-295 > 100 µM | HOP-62 > 100 µM | UO-31 > 100 µM | COLO 205 > 100 µM | SK-MEL-5 > 100 µM | UACC-62 > 100 µM | NCI-H226 > 100 µM | U-251 > 100 µM | NCI-H23 > 100 µM | ACHN > 100 µM | MDA-MB-435 > 100 µM | MDA-N > 100 µM | NCI-H460 > 100 µM

C=CCOC1OC(CS(=O)(=O)O)C(OC(C)=O)C(OC(C)=O)C1OC(C)=O (stereo not given)
inactive: MOLT-4 > 100 µM | OVCAR-5 > 100 µM | SK-OV-3 > 100 µM | BT-549 > 100 µM | UACC-257 > 100 µM | SF-295 > 100 µM | HOP-62 > 100 µM | UO-31 > 100 µM | COLO 205 > 100 µM | SK-MEL-5 > 100 µM | UACC-62 > 100 µM | NCI-H226 > 100 µM | U-251 > 100 µM | NCI-H23 > 100 µM | MDA-MB-435 > 100 µM | MDA-N > 100 µM | NCI-H460 > 100 µM

O=c1oc2cc(O)ccc2cc1-c1nc2ccccc2o1
inactive: MOLT-4 24.7 µM | OVCAR-5 > 100 µM | BT-549 15.5 µM | UACC-257 43.4 µM | 786-0 30.5 µM | SF-295 44.9 µM | HOP-62 23.3 µM | UO-31 26.9 µM | COLO 205 30.8 µM | SK-MEL-5 19.5 µM | SF-539 58.2 µM | UACC-62 20 µM | NCI-H226 61.5 µM | U-251 28.7 µM | NCI-H23 32.6 µM | ACHN 32.3 µM | MDA-MB-435 28.2 µM | MDA-N 40.8 µM | NCI-H460 30.5 µM

CCc1c(Cc2cc(C)cc(C)c2)n2c(nc1=O)SCC2CBr (stereo not given)
inactive: MOLT-4 34 µM | OVCAR-5 > 50 µM | BT-549 > 50 µM | UACC-257 > 50 µM | 786-0 > 50 µM | UO-31 > 50 µM | COLO 205 > 50 µM | SK-MEL-5 > 50 µM | SF-539 > 50 µM | UACC-62 > 50 µM | NCI-H226 > 50 µM | U-251 24.8 µM | NCI-H23 > 50 µM | ACHN > 50 µM | MDA-MB-435 > 50 µM | MDA-N > 50 µM | NCI-H460 > 50 µM
